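The compound was tested at five concentrations on cells cultured in 96-well plates, with a 48-hour exposure period. GI50 is the concentration that inhibits growth by half.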 Activity calls are given as the source filed them. Rule as the data show it: active = GI50 up to about 1.1 µM and inactive = higher.
Experiments:
Assay in all cases: NCI tumour cell line growth inhibition, 48 h
SW-620 = tested on: SW-620
LOX IMVI = tested on: LOX IMVI
RPMI-8226 = tested on: RPMI-8226
MOLT-4 = tested on: MOLT-4
HCT-15 = tested on: HCT-15
CAKI-1 = tested on: CAKI-1
CCRF-CEM = tested on: CCRF-CEM
MDA-N = tested on: MDA-N
U-251 = tested on: U-251
UACC-62 = tested on: UACC-62
OVCAR-5 = tested on: OVCAR-5
SK-MEL-28 = tested on: SK-MEL-28
UO-31 = tested on: UO-31
HT-29 = tested on: HT-29
Malme-3M = tested on: Malme-3M
HCT-116 = tested on: HCT-116
SN12C = tested on: SN12C
PC-3 = tested on: PC-3
SF-268 = tested on: SF-268
Hs-578T = tested on: Hs-578T
IGROV-1 = tested on: IGROV-1
OVCAR-8 = tested on: OVCAR-8
SNB-75 = tested on: SNB-75
TK-10 = tested on: TK-10
ACHN = tested on: ACHN
SF-539 = tested on: SF-539
DU-145 = tested on: DU-145
HL-60 = tested on: HL-60
HOP-62 = tested on: HOP-62
MDA-MB-231 = tested on: MDA-MB-231
BT-549 = tested on: BT-549
MDA-MB-435 = tested on: MDA-MB-435
K562 = tested on: K562
EKVX = tested on: EKVX
SR = tested on: SR
MCF7 = tested on: MCF7
M14 = tested on: M14
SF-295 = tested on: SF-295
NCI-H23 = tested on: NCI-H23
OVCAR-3 = tested on: OVCAR-3
RXF 393 = tested on: RXF 393
OVCAR-4 = tested on: OVCAR-4
NCI/ADR-RES = tested on: NCI/ADR-RES
SK-MEL-5 = tested on: SK-MEL-5
KM12 = tested on: KM12
SNB-19 = tested on: SNB-19
SK-OV-3 = tested on: SK-OV-3
A549 = tested on: A549
COLO 205 = tested on: COLO 205
NCI-H460 = tested on: NCI-H460
UACC-257 = tested on: UACC-257
T47D = tested on: T47D
HCC 2998 = tested on: HCC 2998
SK-MEL-2 = tested on: SK-MEL-2
NCI-H226 = tested on: NCI-H226
786-0 = tested on: 786-0
NCI-H522 = tested on: NCI-H522
HOP-92 = tested on: HOP-92
A498 = tested on: A498

With `COc1ccc(-c2c3c(nc4nc(SCC(=O)c5ccc(Br)cc5)nc(N)c24)CCCC3)cc1OC` the GI50 (SW-620) was 74.5 µM (inactive), the GI50 (LOX IMVI) was > 100 µM (inactive) and the GI50 (RPMI-8226) was 64.1 µM (inactive). For the same molecule, the GI50 (MOLT-4) was > 10 µM (inactive), the GI50 (HCT-15) was > 100 µM and the GI50 (CAKI-1) was 79.6 µM (inactive). The GI50 (CCRF-CEM) was > 100 µM (inactive), the GI50 (MDA-N) was > 100 µM (inactive) and the GI50 (U-251) was > 100 µM (inactive). The GI50 (UACC-62) was > 100 µM (inactive), the GI50 (OVCAR-5) was > 100 µM (inactive) and the GI50 (SK-MEL-28) was 64 µM (inactive). For the same molecule, the GI50 (UO-31) was > 100 µM (inactive), the GI50 (HT-29) was 41.4 µM (inactive) and the GI50 (Malme-3M) was 42.6 µM (inactive). The GI50 (HCT-116) was > 100 µM (inactive), the GI50 (SN12C) was > 100 µM (inactive) and the GI50 (PC-3) was > 100 µM (inactive). The GI50 (SF-268) was 71.9 µM (inactive), the GI50 (Hs-578T) was 15.3 µM (inactive) and the GI50 (IGROV-1) was > 100 µM (inactive). For the same molecule, the GI50 (OVCAR-8) was 33.5 µM (inactive), the GI50 (SNB-75) was 14.9 µM (inactive) and the GI50 (TK-10) was > 100 µM (inactive). The GI50 (ACHN) was > 100 µM (inactive), the GI50 (SF-539) was > 100 µM (inactive) and the GI50 (DU-145) was > 100 µM (inactive). The GI50 (HL-60) was 90.6 µM (inactive), the GI50 (HOP-62) was 58.6 µM (inactive) and the GI50 (MDA-MB-231) was 26.9 µM (inactive). The GI50 (BT-549) was 80 µM (inactive), the GI50 (MDA-MB-435) was > 100 µM (inactive) and the GI50 (K562) was > 100 µM (inactive). The GI50 (EKVX) was 84.1 µM (inactive), the GI50 (SR) was > 100 µM (inactive) and the GI50 (MCF7) was > 100 µM (inactive). The GI50 (M14) was 41.9 µM (inactive), the GI50 (SF-295) was > 100 µM (inactive) and the GI50 (NCI-H23) was > 100 µM (inactive). For the same molecule, the GI50 (OVCAR-3) was > 100 µM (inactive), the GI50 (RXF 393) was 19.3 µM (inactive) and the GI50 (OVCAR-4) was 33.7 µM (inactive). For the same molecule, the GI50 (NCI/ADR-RES) was 74.5 µM (inactive), the GI50 (SK-MEL-5) was 10.1 µM (inactive) and the GI50 (KM12) was > 100 µM (inactive). The GI50 (SNB-19) was > 100 µM (inactive), the GI50 (SK-OV-3) was 30.5 µM (inactive) and the GI50 (A549) was > 100 µM (inactive). For the same molecule, the GI50 (COLO 205) was > 100 µM (inactive), the GI50 (NCI-H460) was > 100 µM (inactive) and the GI50 (UACC-257) was > 100 µM (inactive). The GI50 (T47D) was 73.6 µM (inactive).

`CN1CCC2(CC1)C(=O)N(NC(N)=O)C(=O)C2c1ccccc1` (centres undefined) was tested, and the GI50 (SW-620) was > 100 µM (inactive), the GI50 (LOX IMVI) was > 100 µM (inactive) and the GI50 (RPMI-8226) was > 100 µM (inactive). For the same molecule, the GI50 (MOLT-4) was > 100 µM (inactive), the GI50 (HCT-15) was > 100 µM and the GI50 (CAKI-1) was > 100 µM (inactive). The GI50 (CCRF-CEM) was > 100 µM (inactive), the GI50 (MDA-N) was > 100 µM (inactive) and the GI50 (U-251) was > 100 µM (inactive). The GI50 (UACC-62) was > 100 µM (inactive), the GI50 (OVCAR-5) was > 100 µM (inactive) and the GI50 (HCC 2998) was > 100 µM (inactive). The GI50 (SK-MEL-28) was > 100 µM (inactive), the GI50 (UO-31) was > 100 µM (inactive) and the GI50 (HT-29) was > 100 µM (inactive). For the same molecule, the GI50 (Malme-3M) was > 100 µM (inactive), the GI50 (HCT-116) was > 100 µM (inactive) and the GI50 (SN12C) was > 100 µM (inactive). For the same molecule, the GI50 (PC-3) was > 100 µM (inactive), the GI50 (SF-268) was > 100 µM (inactive) and the GI50 (Hs-578T) was > 100 µM (inactive). For the same molecule, the GI50 (IGROV-1) was > 100 µM (inactive), the GI50 (OVCAR-8) was > 100 µM (inactive) and the GI50 (SNB-75) was > 100 µM (inactive). The GI50 (TK-10) was > 100 µM (inactive), the GI50 (ACHN) was > 100 µM (inactive) and the GI50 (SF-539) was > 100 µM (inactive). For the same molecule, the GI50 (DU-145) was > 100 µM (inactive), the GI50 (SK-MEL-2) was > 100 µM (inactive) and the GI50 (NCI-H226) was > 100 µM (inactive). For the same molecule, the GI50 (HL-60) was > 100 µM (inactive), the GI50 (HOP-62) was > 100 µM (inactive) and the GI50 (MDA-MB-231) was > 100 µM (inactive). The GI50 (BT-549) was > 100 µM (inactive), the GI50 (MDA-MB-435) was > 100 µM (inactive) and the GI50 (K562) was > 100 µM (inactive). The GI50 (786-0) was > 100 µM (inactive), the GI50 (EKVX) was > 100 µM (inactive) and the GI50 (MCF7) was > 10 µM (inactive). The GI50 (M14) was > 100 µM (inactive), the GI50 (SF-295) was > 100 µM (inactive) and the GI50 (NCI-H23) was > 100 µM (inactive). For the same molecule, the GI50 (OVCAR-3) was > 100 µM (inactive), the GI50 (RXF 393) was > 100 µM (inactive) and the GI50 (OVCAR-4) was > 100 µM (inactive). The GI50 (NCI/ADR-RES) was > 100 µM (inactive), the GI50 (SK-MEL-5) was > 100 µM (inactive) and the GI50 (KM12) was > 100 µM (inactive). The GI50 (SNB-19) was > 100 µM (inactive), the GI50 (SK-OV-3) was > 100 µM (inactive) and the GI50 (A549) was > 100 µM (inactive). The GI50 (COLO 205) was > 100 µM (inactive), the GI50 (NCI-H460) was > 100 µM (inactive) and the GI50 (UACC-257) was > 100 µM (inactive). For the same molecule, the GI50 (T47D) was > 100 µM (inactive).

In the case of `O=C(/C=N/O)Nc1cc(Cl)c(Cl)cc1Cl`, the GI50 (SW-620) was 35.7 µM (inactive), the GI50 (LOX IMVI) was 33.8 µM (inactive) and the GI50 (RPMI-8226) was 27.9 µM (inactive). The GI50 (MOLT-4) was 15.1 µM (inactive), the GI50 (HCT-15) was 31.4 µM and the GI50 (CAKI-1) was 24.3 µM (inactive). The GI50 (CCRF-CEM) was 26.7 µM (inactive), the GI50 (MDA-N) was 27.7 µM (inactive) and the GI50 (NCI-H522) was 24.9 µM (inactive). For the same molecule, the GI50 (U-251) was 29.2 µM (inactive), the GI50 (UACC-62) was 25.9 µM (inactive) and the GI50 (OVCAR-5) was 42.1 µM (inactive). The GI50 (HCC 2998) was 26.6 µM (inactive), the GI50 (SK-MEL-28) was 41 µM (inactive) and the GI50 (UO-31) was 41.9 µM (inactive). The GI50 (HT-29) was 36.8 µM (inactive), the GI50 (Malme-3M) was 35.7 µM (inactive) and the GI50 (HCT-116) was 37.1 µM (inactive). The GI50 (SN12C) was 23.9 µM (inactive), the GI50 (PC-3) was 33.2 µM (inactive) and the GI50 (SF-268) was 33.3 µM (inactive). For the same molecule, the GI50 (Hs-578T) was 29.2 µM (inactive), the GI50 (IGROV-1) was 20.7 µM (inactive) and the GI50 (OVCAR-8) was 23.8 µM (inactive). For the same molecule, the GI50 (SNB-75) was 20.7 µM (inactive), the GI50 (TK-10) was 30.4 µM (inactive) and the GI50 (ACHN) was 29.9 µM (inactive). For the same molecule, the GI50 (SF-539) was 31.6 µM (inactive), the GI50 (HOP-92) was 26.9 µM (inactive) and the GI50 (DU-145) was 31.9 µM (inactive). For the same molecule, the GI50 (SK-MEL-2) was 24.9 µM (inactive), the GI50 (HL-60) was 18.7 µM (inactive) and the GI50 (HOP-62) was 31.6 µM (inactive). The GI50 (MDA-MB-231) was 25.8 µM (inactive), the GI50 (BT-549) was 27.2 µM (inactive) and the GI50 (MDA-MB-435) was 23 µM (inactive). The GI50 (K562) was 25.6 µM (inactive), the GI50 (786-0) was 37.4 µM (inactive) and the GI50 (EKVX) was 23.2 µM (inactive). The GI50 (MCF7) was 22.6 µM (inactive), the GI50 (M14) was 34.4 µM (inactive) and the GI50 (SF-295) was 27 µM (inactive). The GI50 (A498) was 16.6 µM (inactive), the GI50 (NCI-H23) was 29.6 µM (inactive) and the GI50 (OVCAR-3) was 24.4 µM (inactive). The GI50 (RXF 393) was 31.5 µM (inactive), the GI50 (OVCAR-4) was 26.1 µM (inactive) and the GI50 (NCI/ADR-RES) was 33.9 µM (inactive). For the same molecule, the GI50 (SK-MEL-5) was 17.7 µM (inactive), the GI50 (KM12) was 26.5 µM (inactive) and the GI50 (SNB-19) was 50.5 µM (inactive). For the same molecule, the GI50 (SK-OV-3) was 27.8 µM (inactive), the GI50 (A549) was 34.5 µM (inactive) and the GI50 (COLO 205) was 26.8 µM (inactive). The GI50 (NCI-H460) was 28.4 µM (inactive), the GI50 (UACC-257) was 26.6 µM (inactive) and the GI50 (T47D) was 16.5 µM (inactive).
